Paper PMC12637021, “Talin–tensin3 interactions regulate fibrillar adhesion formation and tensin3 phase separation” (The Journal of Cell Biology, 2025)
pKd: −log10 of the molar value. Where “and” joins values, the source holds several entries; their conditions need not be identical. Equal entries are not always repeated. Where a SMILES comes first, the peptide text is derived from it.

Tests used:
[1] = biological target: T1, talin R3 domain (residues 787–911) (Mus musculus, UniProt P26039); test: ITC, tensin3 TBS peptide binding to talin R3; details: ITC 25°C, pH 6.5; mean ± SD from triplicate measurements
T1 construct: recombinant talin R3 domain (residues 787–911); hexahistidine-tag followed by TEV protease cleavage site (N); made in house; host or cells: E. coli BL21
Description: (§1) Figure 3. Structural characterization of the multidomain talin–tensin3 interaction. (A) Representative images of NIH3T3 cells co-expressing GFP-R11DD-cBAK WT or carrying K2024E, K2031E, or both (K2024E+K2031E) with mCh-IDR. (B) Mitochondrial pulldown experiment using the same constructs as in A. (C) AlphaFold3 model of the talin R8–tensin3 TBS complex. TBS (orange) was predicted to engage the α2-α3 face of the R8 bundle (cyan). K1500 and R1510 (brown) are highlighted on the […]. (D) NIH3T3 cells co-expressing GFP-R7R8-cBAK WT or carrying K1500E or R1510E with mCh-IDR. (E) Mitochondrial pulldown experiment using constructs as in D. (F) Cells co-expressing mCh-TNS3-WT-cBAK and GFP-TLN1 constructs (R8m, K1500E; R11m, K2024E+K2031E). mCh-TNS3-L702E-cBAK was used as a negative control. (G and H) Overlay ^1H-^15N HSQC spectra of ^15N-labeled talin R3 (G) and talin R4 (H), at a concentration of 200 µM, in the absence (blue) and presence (red) of tensin3 TBS peptide at a molar ratio of 1:2. Magnified views in the right panels show the cross-peaks corresponding to the residues K869 and V871 of talin R3 (G) and the residues S927 and G969 of talin R4 (H), illustrating the progressive chemical shift changes at peptide molar ratios of 0 (blue), 0.25 (orange), 0.5 (green), 1.0 (coral), and 2.0 (red). The HSQC spectra of R3 and R4 were recorded at 700 and 800 MHz, respectively. (I and J) Mapping of the residue-specific CSD (related to Fig. S2, H and I) on the AlphaFold3 models of talin R3 (I) and R4 (J) colored in cyan, respectively, in complex with tensin3 TBS (orange). […]
(§2) Recombinant mouse talin1 R3 and R7R8 domains were expressed using the pET-151/D-TOPO vector. […] Final protein concentrations were determined by measuring absorbance at 280 nm using a NanoDrop spectrophotometer (Thermo Fisher Scientific), based on calculated extinction coefficients.
(§3) ITC experiments were performed using a MicroCal PEAQ-ITC automated instrument (Malvern Panalytical) at 25°C. […] Data were analyzed using the one-site binding model implemented in MicroCal PEAQ-ITC analysis software (Malvern Panalytical).

[2] = biological target: T2, talin R4 domain (residues 913–1,044) (Mus musculus, UniProt P26039); test: 1H-15N HSQC NMR titration of talin R4; format: binding
T2 construct: R4 domain (residues 913–1,044); hexahistidine-tag followed by TEV protease cleavage site (N); made in house; host or cells: E. coli BL21
Procedure: (§4) Recombinant mouse talin1 R3 and R7R8 domains were expressed using the pET-151/D-TOPO vector. The recombinant mouse talin R4 domain was expressed using the pET-28a(+)vectors. Both vectors include an N-terminal hexahistidine-tag followed by a tobacco etch virus protease cleavage site. Proteins were overexpressed in BL21 cells and purified via nickel-affinity chromatography with a single-step elution at 250 mM imidazole concentration. For NMR studies, uniformly ^15N-labeled proteins were produced by growing cells in 2xM9 minimal medium supplemented with 1 g/Liter ^15N-ammonium chloride (^15NH4Cl) as the sole nitrogen source. Following purification, proteins were concentrated and buffer-exchanged using PD-10 desalting columns (Cytiva). Final protein concentrations were determined by measuring absorbance at 280 nm using a NanoDrop spectrophotometer (Thermo Fisher Scientific), based on calculated extinction coefficients.
(§5) NMR spectra were acquired on Bruker Neo 700 MHz (for talin R3) or 800 MHz (for talin R4 and R7R8) spectrometers equipped with TCI cryoprobes. All experiments were performed at 298 K using 200 µM of uniformly ^15N-labeled talin R3, R4, or R7R8 in 20 mM sodium phosphate buffer (pH 6.4) containing 50 mM NaCl, 0.1 mM tris(2-carboxyethyl)phosphine (TCEP), and 5% (vol/vol) D2O. For titration experiments, synthetic tensin3 TBS peptide (aa 692–718) was added at final concentrations of 50, 100, 200, 400, and 800 µM. NMR data were processed using TopSpin (Bruker) and analyzed with Collaborative Computational Project for NMR software AnalysisAssign (version 3.2). HSQC spectra were measured using a standard Bruker pulse sequence. HSQC signals of the free proteins were assigned using the available backbone chemical shift data from the Biological Magnetic Resonance Data Bank (BMRB entries; R3: 17332; R4: 18313). The signals of the bound state were assigned by following the chemical shift changes with the increased concentrations of the peptide. Residue-specific chemical shift differences were calculated using HSQC spectra in the presence of 400 µM tensin3 TBS peptide.

[3] = biological target: T2, talin R4 domain (residues 913–1,044); test: ITC, tensin3 TBS peptide binding to talin R4; details: ITC 25°C, pH 6.5; mean ± SD from triplicate measurements
Description: as §1, §2, §3

[4] = biological target: T3, talin R7R8 region (residues 1,359–1,659) (Mus musculus, UniProt P26039); test: 1H-15N HSQC NMR titration of talin R7R8; format: binding; details: intermediate exchange
T3 construct: R7R8 region (residues 1,359–1,659); hexahistidine-tag followed by TEV protease cleavage site (N); made in house; host or cells: E. coli BL21
Procedure: as §4, with “Following purification, proteins were concentrated and buffer-exchanged using PD-10 desalting columns (Cytiva).” left out
NMR spectra were acquired on Bruker Neo 700 MHz (for talin R3) or 800 MHz (for talin R4 and R7R8) spectrometers equipped with TCI cryoprobes. […] NMR data were processed using TopSpin (Bruker) and analyzed with Collaborative Computational Project for NMR software AnalysisAssign (version 3.2). HSQC spectra were measured using a standard Bruker pulse sequence. […] Residue-specific chemical shift differences were calculated using HSQC spectra in the presence of 400 µM tensin3 TBS peptide.

[5] = biological target: talin R11; details: previous observation; ref Atherton et al., 2022; read-out: Kd, talin R11 with tensin3 TBS; cited from earlier work
[6] = biological target: T1, talin R3 domain (residues 787–911); test: 1H-15N HSQC NMR titration of talin R3; format: binding
Procedure: as §4, §5

[7] = biological target: T3, talin R7R8 region (residues 1,359–1,659); test: ITC, tensin3 TBS peptide binding to talin R7R8; details: ITC 25°C, pH 6.5; mean ± SD from triplicate measurements
Description: as §1, §2, §3

[8] = 1:2 molar ratio (400 µM TBS peptide), threshold 5× SD

T3 sequence (P26039 1359-1659 limits assumed): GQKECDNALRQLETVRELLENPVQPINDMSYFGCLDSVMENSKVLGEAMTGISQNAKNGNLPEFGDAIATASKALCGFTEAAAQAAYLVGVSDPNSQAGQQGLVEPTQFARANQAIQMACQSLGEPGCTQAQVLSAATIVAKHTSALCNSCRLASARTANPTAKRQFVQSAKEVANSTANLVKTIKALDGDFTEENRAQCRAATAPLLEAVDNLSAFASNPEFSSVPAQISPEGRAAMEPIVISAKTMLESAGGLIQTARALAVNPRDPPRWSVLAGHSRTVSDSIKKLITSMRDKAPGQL
T1 sequence (P26039 787-911): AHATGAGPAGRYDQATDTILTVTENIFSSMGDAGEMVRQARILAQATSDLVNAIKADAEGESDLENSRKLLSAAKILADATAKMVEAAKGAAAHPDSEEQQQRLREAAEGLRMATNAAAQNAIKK
T2 sequence (P26039 913-1044 limits assumed): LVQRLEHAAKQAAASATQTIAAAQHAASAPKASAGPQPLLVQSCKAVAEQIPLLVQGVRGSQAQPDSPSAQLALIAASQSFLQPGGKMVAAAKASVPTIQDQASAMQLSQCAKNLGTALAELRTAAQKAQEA

- Gibbs free energy (ΔG), R3-TBS [1]: -6.41 ± 0.0478 kcal/mol
- enthalpy change (ΔH), R3-TBS [1]: 1.68 ± 0.148 kcal/mol and 1.68 ± 0.14 kcal/mol
- entropy contribution (−TΔS), R3-TBS [1]: -8.08 ± 0.0956 kcal/mol
- HSQC spectral changes on addition of TBS, R4 ([2]; 200 µM 15N-talin R4, 298 K, 20 mM sodium phosphate pH 6.4, 50 mM NaCl, 0.1 mM TCEP, 5% D2O, 800 MHz, molar ratio up to 1:2): substantial changes
- location of significant chemical shift perturbations, R4 [2, 8]: α1 and α2 helices of R4
- Kd range suggested by exchange rate in NMR, R4 ([2]; intermediate exchange): micromolar (µM) range
- Gibbs free energy (ΔG), R4-TBS [3]: -6.29 ± 0.086 kcal/mol
- enthalpy change (ΔH), R4-TBS [3]: 2.94 ± 0.586 kcal/mol and 2.94 ± 0.574 kcal/mol
- entropy contribution (−TΔS), R4-TBS [3]: -9.32 ± 0.626 kcal/mol
- Kd range suggested by exchange rate in NMR, R7R8 [4]: micromolar (µM) range
- HSQC spectral changes on addition of TBS, R3 ([6]; 200 µM 15N-talin R3, 298 K, 20 mM sodium phosphate pH 6.4, 50 mM NaCl, 0.1 mM TCEP, 5% D2O, 700 MHz, molar ratio up to 1:2): substantial changes
- location of significant chemical shift perturbations, R3 [6, 8]: α2 and α3 helices of R3
- Kd range suggested by exchange rate in NMR, R3 ([6]; intermediate exchange): micromolar (µM) range
- Gibbs free energy (ΔG), R7R8-TBS [7]: -6.549 ± 0.0406 kcal/mol
- enthalpy change (ΔH), R7R8-TBS [7]: 10.21 ± 0.492 kcal/mol
- entropy contribution (−TΔS), R7R8-TBS [7]: -16.75 ± 0.464 kcal/mol
SMILES: CC[C@H](C)[C@H](NC(=O)[C@H](CO)NC(=O)[C@H](CCC(N)=O)NC(=O)[C@H](CC(=O)O)NC(=O)[C@@H](NC(=O)[C@H](CC(=O)O)NC(=O)[C@H](CC(C)C)NC(=O)[C@@H](N)[C@@H](C)O)[C@@H](C)CC)C(=O)N[C@@H](CCC(=O)O)C(=O)N[C@@H](CCC(N)=O)C(=O)N[C@@H](CC(C)C)C(=O)N[C@@H](CC(N)=O)C(=O)N[C@@H](CCCNC(=N)N)C(=O)N[C@@H](CC(C)C)C(=O)N[C@H](C(=O)N[C@@H](CC(C)C)C(=O)N[C@@H](CCC(=O)O)C(=O)N[C@@H](CC(C)C)C(=O)N[C@@H](CC(=O)O)C(=O)N1CCC[C@H]1C(=O)N[C@H](C(=O)N[C@@H](Cc1ccccc1)C(=O)N[C@@H](CCC(=O)O)C(=O)N1CCC[C@H]1C(=O)N[C@H](C(=O)N1CCC[C@H]1C(=O)N[C@H](C(=O)O)[C@@H](C)O)[C@@H](C)CC)[C@@H](C)O)[C@@H](C)CC [tensin3 TBS] (H-TLDIDQSIEQLNRLILELDPTFEPIPT-OH; N-terminus and C-terminus assumed)
- pKd [5]: 4.77
